# In patent US7582638B2, “Pyrazole-isoquinoline urea derivatives as p38 kinase inhibitors” (Eli Lilly and Company, priority 2005, dated 2009):
# Columns and labels:
# [1] = system: pMAPKAPK2; assay: Inhibition of p-MAPKAPK2 in vitro (anisomycin-stimulated RAW 264.7 cells, ELISA); format: cell-based, murine; settings: Mus musculus, RAW264.7, 2 hours compound, anisomicin 100 ug/ml 30 minutes, read-out: IC50, inhibition of pMAPKAPK2 enzyme production
# Protocol: RAW 264.7 cells (a murine monocytic/macrophage line ATCC) are seeded at a density of 50,000 cells/well in 96-well plates with RPMI-1640 medium plus 10% fetal bovine serum (FBS) and allowed to settle and adhere to the bottom of the well for 48 hours. After reaching confluence, cells are treated for 2 hours with 10 serial dilutions of different compounds. A control compound is always included. After 2 hours, anisomicin (100 ug/ml) is added and cells are incubated for 30 minutes at 37° C. under a 5% CO2 atmosphere. Then, cells are fixed and treated with hydrogen peroxide in order to remove endogenous peroxidase. Finally, plates are blocked with FBS, washed, and an ELISA assay is carried out by using an antiphospho-MAPKAPK2 (Thr 334, Cell Signalling, Cat # 3041) antibody and ahP-Conjugated Secondary Antibody. This reaction is detected by using FEMTO (Pierce) which is an enhanced chemiluminiscent substrate ahP that results in rapid kinetic light output and high signal intensity. The compound exemplified in Example 12 is tested essentially as described above and is found to inhibit the pMAPKAPK2 enzyme production with an IC50 of 7 nM.
# [2] = system: TNFα; assay: Effect on intra-articular LPS induced TNFα (synovial lavage fluid); format: in vivo; settings: female Lewis rats, oral, intra-articular LPS 10 μg one hour later, lavage after two hours
# Protocol: Intra-articular injection of LPS into rat ankles induces the synthesis of TNFα, which can be measured in synovial lavage fluid. High levels of TNFα are detectable within 2 hours. Since the joint is the site where arthritis develops, this model can rapidly determine whether an orally administered compound has an effect on an inflammatory response in the synovium.
# Six female Lewis rats (150-200 g) are place in each treatment group. The animals are given vehicle (1% NaCarboxylnethylcellulose-0.25% Tween 80) or test compound (1 mg/kg, 3 mg/kg, 10 mg/kg, and 30 mg/kg) orally. One hour later, 10 μl LPS (10 μg) is administered intra-articularly into the right ankle of each rat, while the left ankle receives 10 μL of saline. After two hours, each ankle is lavaged with 100 μL of saline. The lavage is collected and stored at −80° C. • Group#1: Vehicle (1%/NaCMC-0.25% Tween 80, 1 mL, PO) • Group#2: Test compound (1 mg/kg, 1 mL, PO) • Group#3: Test compound (3 mg/kg, 1 mL, PO) • Group#4: Test compound (10 mg/kg, 1 mL, PO) • Group#5: Test compound (30 mg/kg, 1 mL, PO)
# TNFα is measured with a commercially available ELISA kit (R&D, RTA00).
# [3] = system: TNFα; assay: Inhibition of TNFα in vivo (LPS challenge, plasma TNFα ELISA); settings: female Balb/c mice, p.o., LPS 400 μg/kg IP 1 hour after compound, plasma 1.5 hours after LPS
# Protocol: Compounds are administered p.o. (30, 10, 3 and 1 mg/kg) to female Balb/c mice (6 mice/dose). 1 hour following compound administration at 4 doses (P.O. at volume of 0.1 mL/mouse; vehicle: 1% NaCMC/0.25% Tween-80 in water); mice are given an IP-injection of LPS at 400 μg/kg. 1.5 hours after LPS challenging, mice are anesthetized with isoflurane and blood is taken via cardiac puncture. TNFa-levels in the plasma are determined using ELISA kit from R&D Systems and dose response ED50 is determined.
# The compound exemplified in Example 12 is tested essentially as described above and suppressed TNFα in vivo with an TMED50 of 1.0 mg/kg. The Threshold Minimum Effective Dose (TMED) 50 is the dose at which greater than or equal to 50% inhibition was achieved and statistically different from control/placebo.
# [4] = system: p-MAPKAPK2; assay: Anisomycin-stimulated mice ex-vivo phospho-MAPKAPK2 inhibition assay by flow cytometry; format: in vivo; settings: female Balb/c mice, po, blood after 2 hours, ex vivo anisomycin 10 μg/ml, CD11b+Ly6G- cells
# Protocol: Female Balb/c mice with 8-10 week-old age are purchased from Taconic Inc. and dosed po with 0.2 mL volume of compounds at the concentrations of 30, 10, 3, 1 mg/kg. Blood is obtained from cardiac puncture after 2 hours or other indicated time periods and collected in EDTA-containing tubes. 100 μL of blood is incubated at 37° C. for 10 minutes. Whole blood is then mixed with FITC-conjugated rat anti-mouse Ly-6G mAb (1:250) and APC-conjugated rat anti-mouse CD11b mAb (1:100) and stimulated with 10 μg/ml anisomycin. Both cell surface antigen staining and anisomycin stimulation is conducted at 37° C. for 15 min and followed up with Lyse/Fix buffer (BD Biosciences, Cat# 558049) for 10 min at room temperature. Lysed blood samples are spun down at 600×g for 8 minutes at room temperature with additional wash once by 4 mL PBS. 200 μL of diluted anti-Phospho-MAPKAPK-2 (Thr334) antibody (1:100 dilution) (Cell Signaling, Cat# 3041) and mouse BD Fc Block (1:100 dilution) (BD Biosciences, 553141) in permeabilization Medium B (Caltag, Cat# GAS002S-5) are added into blood cells and incubate at room temperature for 30 min. After the incubation, 3 mL of stain/wash buffer is added and cells are spanned down as described above with additional wash with 3 ml stain/wash buffer. […] Mean fluorescence of phosphono-MapKap-K2 staining is measured on gated CD11b+Ly6G-cells. […]
# [5] = Oral exposure; format: in vivo; settings: rat, 1 mg/kg, male Fischer 344 rats, fasted, gavage, suspension 1 mg/mL at 1 mL/kg, plasma
# Protocol: Compounds are screened for oral exposure in male Fischer 344 rats. Animals are fasted overnight and administered test compounds prepared as suspensions in sodium carboxymethylcellulose (1% w/v) containing Tween 80 (0.25% v/v) and antifoam (0.1% w/v). Dose suspensions are prepared at 1 mg/mL and administered at 1 mL/kg by gavage. Blood samples are taken between 0.5 h and 7 h after dose administration and plasma are prepared by centrifugation. Plasma samples are analyzed using online solid phase extraction and LC/MS/MS.
compound,measurement,setting,value
"CS(=O)(=O)O.Cc1ccc(-n2nc(C3(C)CC3)cc2NC(=O)Nc2cnc(OC3CCN(C(=O)C4(C)CC4)CC3)c3ccccc23)cc1 [Example 12, 1-{1-[1-(1-Methyl-cyclopropanecarbonyl)-piperidin-4-yloxy]-isoquinolin-4-yl}-3-[5-(1-methyl-cyclopropyl)-2-p-tolyl-2H-pyrazol-3-yl]-urea mesylate]",IC50,[1],7 nM
same,"TMED50, inhibition of TNFα synthesis in the synovial lavage fluid",[2],2.54 mg/kg
same,"TMED50, suppression of TNFα in vivo",[3],1.0 mg/kg
same,"TMED50, inhibition of p-MAPKAPK2 synthesis",[4],2.20 mg/kg
same,Cmax,[5],9390 ng/mL
same,AUC(0-t),[5]; read-out: AUC (0-7 h),36800 ng·h/mL
